#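 Grown in 96-well plates, cells were treated for 48 hours with each compound at five concentrations. Insufficient inhibition: endpoint recorded as highest concentration tested. GI50 is the concentration that inhibits growth by half. At the TGI there is no net growth.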
# What was measured:
# Assay in all cases: NCI-60 cell line screen, 48 h
# A498 renal = tested on: A498 renal
# A549 NSCLC = tested on: A549 NSCLC
# ACHN renal = tested on: ACHN renal
# BT-549 breast = tested on: BT-549 breast
# CAKI-1 renal = tested on: CAKI-1 renal
# CCRF-CEM leukemia = tested on: CCRF-CEM leukemia
# COLO 205 colon = tested on: COLO 205 colon
# DU-145 prostate = tested on: DU-145 prostate
# EKVX NSCLC = tested on: EKVX NSCLC
# HCC-2998 colon = tested on: HCC-2998 colon
# HCT-116 colon = tested on: HCT-116 colon
# HCT-15 colon = tested on: HCT-15 colon
# HL-60(TB) leukemia = tested on: HL-60(TB) leukemia
# HOP-62 NSCLC = tested on: HOP-62 NSCLC
# HOP-92 NSCLC = tested on: HOP-92 NSCLC
# HS 578T breast = tested on: HS 578T breast
# HT29 colon = tested on: HT29 colon
# IGROV1 ovarian = tested on: IGROV1 ovarian
# K-562 leukemia = tested on: K-562 leukemia
# KM12 colon = tested on: KM12 colon
# LOX IMVI melanoma = tested on: LOX IMVI melanoma
# M14 melanoma = tested on: M14 melanoma
# MALME-3M melanoma = tested on: MALME-3M melanoma
# MCF7 breast = tested on: MCF7 breast
# MDA-MB-231 breast = tested on: MDA-MB-231 breast
# MDA-MB-435 = tested on: MDA-MB-435
# MOLT-4 leukemia = tested on: MOLT-4 leukemia
# NCI-H226 lung = tested on: NCI-H226 lung
# NCI-H23 lung = tested on: NCI-H23 lung
# NCI-H460 lung = tested on: NCI-H460 lung
# NCI-H522 lung = tested on: NCI-H522 lung
# NCI/ADR-RES ovarian = tested on: NCI/ADR-RES ovarian
# OVCAR-3 ovarian = tested on: OVCAR-3 ovarian
# OVCAR-4 ovarian = tested on: OVCAR-4 ovarian
# OVCAR-5 ovarian = tested on: OVCAR-5 ovarian
# OVCAR-8 ovarian = tested on: OVCAR-8 ovarian
# RPMI-8226 leukemia = tested on: RPMI-8226 leukemia
# RXF 393 renal = tested on: RXF 393 renal
# SF-268 CNS = tested on: SF-268 CNS
# SF-295 CNS = tested on: SF-295 CNS
# SF-539 CNS = tested on: SF-539 CNS
# SK-MEL-2 melanoma = tested on: SK-MEL-2 melanoma
# SK-MEL-28 melanoma = tested on: SK-MEL-28 melanoma
# SK-MEL-5 melanoma = tested on: SK-MEL-5 melanoma
# SK-OV-3 ovarian = tested on: SK-OV-3 ovarian
# SNB-19 CNS = tested on: SNB-19 CNS
# SNB-75 CNS = tested on: SNB-75 CNS
# SR leukemia = tested on: SR leukemia
# SW-620 colon = tested on: SW-620 colon
# T-47D breast = tested on: T-47D breast
# TK-10 renal = tested on: TK-10 renal
# U251 CNS = tested on: U251 CNS
# UACC-257 melanoma = tested on: UACC-257 melanoma
# UO-31 renal = tested on: UO-31 renal
# 786-0 renal = tested on: 786-0 renal
# PC-3 prostate = tested on: PC-3 prostate
# SN12C renal = tested on: SN12C renal
# UACC-62 melanoma = tested on: UACC-62 melanoma
smiles,measurement,setting,value
COc1ccc(/C=C/C2C(C#N)=C(N)OC3=C2C(=O)CCC3)cc1 (centres undefined),GI50,A498 renal,22.6 µM
same,TGI,A498 renal,41 µM
same,GI50,A549 NSCLC,32.4 µM
same,TGI,A549 NSCLC,97 µM
same,GI50,ACHN renal,17.7 µM
same,TGI,ACHN renal,33.7 µM
same,GI50,BT-549 breast,31.9 µM
same,TGI,BT-549 breast,> 100 µM
same,GI50,CAKI-1 renal,40.8 µM
same,TGI,CAKI-1 renal,97.3 µM
same,GI50,CCRF-CEM leukemia,4.05 µM
same,TGI,CCRF-CEM leukemia,16.6 µM
same,GI50,COLO 205 colon,21.1 µM
same,TGI,COLO 205 colon,41.2 µM
same,GI50,DU-145 prostate,15.9 µM
same,TGI,DU-145 prostate,33.7 µM
same,GI50,EKVX NSCLC,38 µM
same,TGI,EKVX NSCLC,> 100 µM
same,GI50,HCC-2998 colon,18.2 µM
same,TGI,HCC-2998 colon,32.9 µM
same,GI50,HCT-116 colon,7.39 µM
same,TGI,HCT-116 colon,20 µM
same,GI50,HCT-15 colon,21.4 µM
same,TGI,HCT-15 colon,> 100 µM
same,GI50,HL-60(TB) leukemia,5.28 µM
same,TGI,HL-60(TB) leukemia,63.2 µM
same,GI50,HOP-62 NSCLC,29.6 µM
same,TGI,HOP-62 NSCLC,62.7 µM
same,GI50,HOP-92 NSCLC,23.6 µM
same,TGI,HOP-92 NSCLC,46.9 µM
same,GI50,HS 578T breast,63 µM
same,TGI,HS 578T breast,> 100 µM
same,GI50,HT29 colon,7.9 µM
same,TGI,HT29 colon,20.2 µM
same,GI50,IGROV1 ovarian,22 µM
same,TGI,IGROV1 ovarian,41.3 µM
same,GI50,K-562 leukemia,24.4 µM
same,TGI,K-562 leukemia,> 100 µM
same,GI50,KM12 colon,13.5 µM
same,TGI,KM12 colon,28.6 µM
same,GI50,LOX IMVI melanoma,11.4 µM
same,TGI,LOX IMVI melanoma,23.4 µM
same,GI50,M14 melanoma,20.8 µM
same,TGI,M14 melanoma,49.6 µM
same,GI50,MALME-3M melanoma,31.9 µM
same,TGI,MALME-3M melanoma,87.1 µM
same,GI50,MCF7 breast,12.1 µM
same,TGI,MCF7 breast,26.4 µM
same,GI50,MDA-MB-231 breast,2.54 µM
same,TGI,MDA-MB-231 breast,8.79 µM
same,GI50,MDA-MB-435,18.4 µM
same,TGI,MDA-MB-435,61.3 µM
same,GI50,MOLT-4 leukemia,4.23 µM
same,TGI,MOLT-4 leukemia,19.7 µM
same,GI50,NCI-H226 lung,15 µM
same,TGI,NCI-H226 lung,34 µM
same,GI50,NCI-H23 lung,20.1 µM
same,TGI,NCI-H23 lung,47.7 µM
same,GI50,NCI-H460 lung,16.9 µM
same,TGI,NCI-H460 lung,35 µM
same,GI50,NCI-H522 lung,18.3 µM
same,TGI,NCI-H522 lung,38.9 µM
same,GI50,NCI/ADR-RES ovarian,33.9 µM
same,TGI,NCI/ADR-RES ovarian,> 100 µM
same,GI50,OVCAR-3 ovarian,34 µM
same,TGI,OVCAR-3 ovarian,> 100 µM
same,GI50,OVCAR-4 ovarian,22.8 µM
same,TGI,OVCAR-4 ovarian,66.5 µM
same,GI50,OVCAR-5 ovarian,18.8 µM
same,TGI,OVCAR-5 ovarian,34.5 µM
same,GI50,OVCAR-8 ovarian,21.2 µM
same,TGI,OVCAR-8 ovarian,> 100 µM
same,GI50,RPMI-8226 leukemia,2.14 µM
same,TGI,RPMI-8226 leukemia,5.18 µM
same,GI50,RXF 393 renal,18.7 µM
same,TGI,RXF 393 renal,35.9 µM
same,GI50,SF-268 CNS,13.8 µM
same,TGI,SF-268 CNS,30.5 µM
same,GI50,SF-295 CNS,21.5 µM
same,TGI,SF-295 CNS,50.1 µM
same,GI50,SF-539 CNS,31.3 µM
same,TGI,SF-539 CNS,80.1 µM
same,GI50,SK-MEL-2 melanoma,38.5 µM
same,TGI,SK-MEL-2 melanoma,> 100 µM
same,GI50,SK-MEL-28 melanoma,17.9 µM
same,TGI,SK-MEL-28 melanoma,35.3 µM
same,GI50,SK-MEL-5 melanoma,18.1 µM
same,TGI,SK-MEL-5 melanoma,32.8 µM
same,GI50,SK-OV-3 ovarian,25.1 µM
same,TGI,SK-OV-3 ovarian,77.6 µM
same,GI50,SNB-19 CNS,19.8 µM
same,TGI,SNB-19 CNS,43.1 µM
same,GI50,SNB-75 CNS,19.9 µM
same,TGI,SNB-75 CNS,37.4 µM
same,GI50,SR leukemia,2.71 µM
same,TGI,SR leukemia,16 µM
same,GI50,SW-620 colon,29.7 µM
same,TGI,SW-620 colon,> 100 µM
same,GI50,T-47D breast,29.4 µM
same,TGI,T-47D breast,> 100 µM
same,GI50,TK-10 renal,26.9 µM
same,TGI,TK-10 renal,63.8 µM
same,GI50,U251 CNS,12.5 µM
same,TGI,U251 CNS,25 µM
same,GI50,UACC-257 melanoma,23 µM
same,TGI,UACC-257 melanoma,49.5 µM
same,GI50,UO-31 renal,18.2 µM
same,TGI,UO-31 renal,33.1 µM
O=C(CN(/C=C/C(=O)C(F)(F)F)c1ccc(Cl)cc1)c1ccc(F)cc1,GI50,786-0 renal,18 µM
same,TGI,786-0 renal,42.3 µM
same,GI50,A549 NSCLC,18.7 µM
same,TGI,A549 NSCLC,81.1 µM
same,GI50,ACHN renal,4.17 µM
same,TGI,ACHN renal,27 µM
same,GI50,BT-549 breast,15.1 µM
same,TGI,BT-549 breast,35.3 µM
same,GI50,CAKI-1 renal,10.4 µM
same,TGI,CAKI-1 renal,32.7 µM
same,GI50,CCRF-CEM leukemia,3.39 µM
same,TGI,CCRF-CEM leukemia,19.8 µM
same,GI50,COLO 205 colon,17.2 µM
same,TGI,COLO 205 colon,46.5 µM
same,GI50,DU-145 prostate,16.1 µM
same,TGI,DU-145 prostate,40.8 µM
same,GI50,EKVX NSCLC,19.2 µM
same,TGI,EKVX NSCLC,43.6 µM
same,GI50,HCC-2998 colon,12.9 µM
same,TGI,HCC-2998 colon,25.7 µM
same,GI50,HCT-116 colon,14.5 µM
same,TGI,HCT-116 colon,52.3 µM
same,GI50,HCT-15 colon,4.21 µM
same,TGI,HCT-15 colon,21.4 µM
same,GI50,HOP-62 NSCLC,30.3 µM
same,TGI,HOP-62 NSCLC,> 100 µM
same,GI50,HOP-92 NSCLC,18 µM
same,TGI,HOP-92 NSCLC,36.8 µM
same,GI50,HS 578T breast,4.95 µM
same,TGI,HS 578T breast,9.71 µM
same,GI50,HT29 colon,17.9 µM
same,TGI,HT29 colon,> 100 µM
same,GI50,IGROV1 ovarian,12.5 µM
same,TGI,IGROV1 ovarian,26.2 µM
same,GI50,K-562 leukemia,2.69 µM
same,TGI,K-562 leukemia,22.2 µM
same,GI50,KM12 colon,5.61 µM
same,TGI,KM12 colon,22.7 µM
same,GI50,LOX IMVI melanoma,0.736 µM
same,TGI,LOX IMVI melanoma,16.9 µM
same,GI50,MALME-3M melanoma,13.7 µM
same,TGI,MALME-3M melanoma,28.9 µM
same,GI50,MCF7 breast,14 µM
same,TGI,MCF7 breast,33.2 µM
same,GI50,MDA-MB-231 breast,14.2 µM
same,TGI,MDA-MB-231 breast,27.3 µM
same,GI50,MDA-MB-435,12.1 µM
same,TGI,MDA-MB-435,32.3 µM
same,GI50,MOLT-4 leukemia,5.59 µM
same,TGI,MOLT-4 leukemia,28.4 µM
same,GI50,NCI-H226 lung,16.2 µM
same,TGI,NCI-H226 lung,30.7 µM
same,GI50,NCI-H23 lung,12.9 µM
same,TGI,NCI-H23 lung,26.2 µM
same,GI50,NCI-H460 lung,11.9 µM
same,TGI,NCI-H460 lung,26.3 µM
same,GI50,NCI-H522 lung,3.6 µM
same,TGI,NCI-H522 lung,17.4 µM
same,GI50,NCI/ADR-RES ovarian,14.4 µM
same,TGI,NCI/ADR-RES ovarian,31.7 µM
same,GI50,OVCAR-3 ovarian,13 µM
same,TGI,OVCAR-3 ovarian,28.2 µM
same,GI50,OVCAR-4 ovarian,15.5 µM
same,TGI,OVCAR-4 ovarian,38 µM
same,GI50,OVCAR-5 ovarian,23.6 µM
same,TGI,OVCAR-5 ovarian,53.5 µM
same,GI50,OVCAR-8 ovarian,15.2 µM
same,TGI,OVCAR-8 ovarian,38.4 µM
same,GI50,PC-3 prostate,11.8 µM
same,TGI,PC-3 prostate,25.9 µM
same,GI50,RPMI-8226 leukemia,10.1 µM
same,TGI,RPMI-8226 leukemia,51.3 µM
same,GI50,RXF 393 renal,42.9 µM
same,TGI,RXF 393 renal,> 100 µM
same,GI50,SF-268 CNS,12.3 µM
same,TGI,SF-268 CNS,30 µM
same,GI50,SF-295 CNS,15.2 µM
same,TGI,SF-295 CNS,34.1 µM
same,GI50,SF-539 CNS,18.9 µM
same,TGI,SF-539 CNS,37.6 µM
same,GI50,SK-MEL-2 melanoma,8.75 µM
same,TGI,SK-MEL-2 melanoma,21.4 µM
same,GI50,SK-MEL-28 melanoma,16.5 µM
same,TGI,SK-MEL-28 melanoma,36.4 µM
same,GI50,SK-MEL-5 melanoma,14.6 µM
same,TGI,SK-MEL-5 melanoma,27.8 µM
same,GI50,SK-OV-3 ovarian,31.5 µM
same,TGI,SK-OV-3 ovarian,91.1 µM
same,GI50,SN12C renal,16.1 µM
same,TGI,SN12C renal,29.6 µM
same,GI50,SNB-19 CNS,16.2 µM
same,TGI,SNB-19 CNS,34.2 µM
same,GI50,SW-620 colon,15.1 µM
same,TGI,SW-620 colon,32.7 µM
same,GI50,T-47D breast,14.9 µM
same,TGI,T-47D breast,> 100 µM
same,GI50,TK-10 renal,18.9 µM
same,TGI,TK-10 renal,74 µM
same,GI50,U251 CNS,11 µM
same,TGI,U251 CNS,23 µM
same,GI50,UACC-257 melanoma,12.8 µM
same,TGI,UACC-257 melanoma,29.9 µM
same,GI50,UACC-62 melanoma,3.04 µM
same,TGI,UACC-62 melanoma,15.2 µM
same,GI50,UO-31 renal,10.9 µM
same,TGI,UO-31 renal,23.3 µM
